The values below come from patent US12281126B2, “Inhibitors of cyclin-dependent kinase 7 and uses thereof” (Dana-Farber Cancer Institute, Inc., priority 2018, dated 2025).

Holding throughout (format): biochemical
For one experiment, the target named is CDK9 (Homo sapiens (Human), UniProt P50750). In words: Invitrogen kinase assay, inhibition of CDK9. As to conditions: co-factor cyclin T1; read-out: IC50 against CDK9. On the procedure: (§1) Compounds of the disclosure were assayed using Invitrogen CDK7 assay against a variety of kinases. Exemplary results are presented as IC50 values (see Table 1 and Table 2). The co-factors used for each kinase in the assays were as follows: CDK7: cyclin H and MNAT1; CDK2: cyclin A; CDK9: cyclin T1.

Another experiment has as its target CDK7 (Homo sapiens (Human), UniProt P50613). In words: Invitrogen CDK7 assay, inhibition of CDK7. Particulars: co-factors cyclin H and MNAT1; read-out: IC50 against CDK7. The method, then: as §1
In another experiment the target is CDK2 (Homo sapiens (Human), UniProt P24941). Description: Invitrogen kinase assay, inhibition of CDK2. Particulars: co-factor cyclin A; read-out: IC50 against CDK2. The method, then:
as §1

Sequence of CDK7 (P50613 whole entry): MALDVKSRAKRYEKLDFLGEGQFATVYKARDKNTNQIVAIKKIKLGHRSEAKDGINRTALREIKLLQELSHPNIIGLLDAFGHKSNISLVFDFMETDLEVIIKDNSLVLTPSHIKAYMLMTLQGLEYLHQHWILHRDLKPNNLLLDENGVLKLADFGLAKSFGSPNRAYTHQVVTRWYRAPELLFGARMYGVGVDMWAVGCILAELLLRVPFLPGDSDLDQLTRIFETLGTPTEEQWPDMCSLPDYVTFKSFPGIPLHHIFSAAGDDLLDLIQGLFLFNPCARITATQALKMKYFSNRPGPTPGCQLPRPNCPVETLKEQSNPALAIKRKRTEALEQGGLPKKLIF
Sequence of CDK7 (P51946 whole entry partner): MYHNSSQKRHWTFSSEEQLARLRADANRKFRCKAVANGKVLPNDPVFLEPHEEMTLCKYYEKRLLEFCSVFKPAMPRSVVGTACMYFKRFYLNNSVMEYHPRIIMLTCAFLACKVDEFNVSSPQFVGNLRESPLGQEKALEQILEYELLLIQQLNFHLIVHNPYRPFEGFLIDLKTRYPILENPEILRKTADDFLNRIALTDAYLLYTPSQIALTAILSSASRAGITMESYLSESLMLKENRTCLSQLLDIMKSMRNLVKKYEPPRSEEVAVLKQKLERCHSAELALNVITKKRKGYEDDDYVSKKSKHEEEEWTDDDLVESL
Sequence of CDK7 (P51948 whole entry partner): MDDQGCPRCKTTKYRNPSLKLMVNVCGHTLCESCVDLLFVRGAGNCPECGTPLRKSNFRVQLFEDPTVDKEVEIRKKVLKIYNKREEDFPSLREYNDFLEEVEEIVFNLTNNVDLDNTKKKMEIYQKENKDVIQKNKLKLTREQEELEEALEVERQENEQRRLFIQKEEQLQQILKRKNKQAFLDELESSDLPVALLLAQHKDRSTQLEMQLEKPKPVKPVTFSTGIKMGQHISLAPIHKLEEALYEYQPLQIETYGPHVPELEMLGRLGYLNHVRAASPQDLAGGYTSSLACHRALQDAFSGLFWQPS
Sequence of CDK9 (P50750 whole entry): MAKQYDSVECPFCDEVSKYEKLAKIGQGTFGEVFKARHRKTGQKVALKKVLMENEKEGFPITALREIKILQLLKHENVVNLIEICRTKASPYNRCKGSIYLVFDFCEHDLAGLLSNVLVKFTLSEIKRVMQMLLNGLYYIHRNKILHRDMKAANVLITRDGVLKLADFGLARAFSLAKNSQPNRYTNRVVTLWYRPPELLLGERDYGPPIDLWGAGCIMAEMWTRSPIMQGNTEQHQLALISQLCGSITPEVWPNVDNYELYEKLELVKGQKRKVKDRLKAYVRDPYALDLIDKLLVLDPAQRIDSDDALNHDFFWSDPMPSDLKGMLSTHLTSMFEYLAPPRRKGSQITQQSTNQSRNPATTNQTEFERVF
Sequence of CDK9 (O60563 whole entry partner): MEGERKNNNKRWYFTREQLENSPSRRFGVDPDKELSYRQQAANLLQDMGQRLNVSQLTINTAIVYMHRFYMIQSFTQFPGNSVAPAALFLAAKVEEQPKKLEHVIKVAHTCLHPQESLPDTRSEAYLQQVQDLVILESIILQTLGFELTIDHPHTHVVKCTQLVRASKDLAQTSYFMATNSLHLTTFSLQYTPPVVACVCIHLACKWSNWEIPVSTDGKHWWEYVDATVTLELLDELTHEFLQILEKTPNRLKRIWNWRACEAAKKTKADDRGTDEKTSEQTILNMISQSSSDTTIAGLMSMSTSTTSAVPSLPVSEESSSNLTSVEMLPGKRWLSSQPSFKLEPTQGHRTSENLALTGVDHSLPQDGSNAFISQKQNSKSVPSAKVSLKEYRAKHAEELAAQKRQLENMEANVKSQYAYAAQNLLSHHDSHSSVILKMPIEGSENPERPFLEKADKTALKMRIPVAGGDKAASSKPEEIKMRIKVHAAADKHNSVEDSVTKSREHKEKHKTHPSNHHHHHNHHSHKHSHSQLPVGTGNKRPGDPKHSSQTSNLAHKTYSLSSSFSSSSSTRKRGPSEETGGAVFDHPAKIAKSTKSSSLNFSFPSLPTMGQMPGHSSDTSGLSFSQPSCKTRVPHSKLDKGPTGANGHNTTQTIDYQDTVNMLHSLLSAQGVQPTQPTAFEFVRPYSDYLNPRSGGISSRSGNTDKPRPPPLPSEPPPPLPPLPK

On to `C=CC(=O)Nc1ccc(C(=O)Nc2n[nH]c3c2CN(C(=O)NC2CN(C)Cc4ccccc42)C3(C)C)cc1` (stereo not drawn) [Compound 207, 3-(4-acrylamidobenzamido)-6,6-dimethyl-N-(2-methyl-1,2,3,4-tetrahydroisoquinolin-4-yl)-4,6-dihydropyrrolo[3,4-c]pyrazole-5(1H)-carboxamide], for which the IC50 was over 10000 nM at CDK9, 15.4 nM at CDK7 and 3410 nM on CDK2.

For the compound `C=CC(=O)Nc1ccc2c(Nc3n[nH]c4c3CN(C(=O)N[C@H](CN(C)C)C3CCOCC3)C4(C)C)nccc2c1` [Compound 202, (S)-3-((6-acrylamidoisoquinolin-1-yl)amino)-N-(2-(dimethylamino)-1-(tetrahydro-2H-pyran-4-yl)ethyl)-6,6-dimethyl-4,6-dihydropyrrolo[3,4-c]pyrazole-5(1H)-carboxamide], the IC50 on CDK9 is over 10000 nM; at CDK7 it was 69 nM; at CDK2 it was over 1110 nM.

Take `C=CC(=O)Nc1ccc(Nc2n[nH]c3c2CN(C(=O)N[C@H](CN(C)C)C2CCOCC2)C3(C)C)cc1` [Compound 209, (S)-3-((4-acrylamidophenyl)amino)-N-(2-(dimethylamino)-1-(tetrahydro-2H-pyran-4-yl)ethyl)-6,6-dimethyl-4,6-dihydropyrrolo[3,4-c]pyrazole-5(1H)-carboxamide]: the IC50 at CDK9 is over 10000 nM; at CDK7 it was 3310 nM; at CDK2, over 10000 nM.

For the compound `C=CC(=O)Nc1cccc2c(Nc3n[nH]c4c3CN(C(=O)N[C@H](CN(C)C)C3CCOCC3)C4(C)C)nccc12` [Compound 203, (S)-3-((5-acrylamidoisoquinolin-1-yl)amino)-N-(2-(dimethylamino)-1-(tetrahydro-2H-pyran-4-yl)ethyl)-6,6-dimethyl-4,6-dihydropyrrolo[3,4-c]pyrazole-5(1H)-carboxamide], the IC50 on CDK9 is over 10000 nM; on CDK7 it was 214 nM; at CDK2, over 10000 nM.

On to `C=CC(=O)Nc1ccc(Nc2n[nH]c3c2CN(C(=O)N[C@H](CN(C)C)C2CCOCC2)C3(C)C)nc1` [Compound 204, (S)-3-((5-acrylamidopyridin-2-yl)amino)-N-(2-(dimethylamino)-1-(tetrahydro-2H-pyran-4-yl)ethyl)-6,6-dimethyl-4,6-dihydropyrrolo[3,4-c]pyrazole-5(1H)-carboxamide], for which the IC50 is over 10000 nM at CDK9, 407 nM on CDK7 and over 10000 nM on CDK2.

For `Cc1nc(Nc2n[nH]c3c2CN(C(=O)N[C@H](CN(C)C)C2CCOCC2)C3(C)C)c2ccsc2n1` [Compound 200, (S)—N-(2-(dimethylamino)-1-(tetrahydro-2H-pyran-4-yl)ethyl)-6,6-dimethyl-3-((2-methylthieno[2,3-d]pyrimidin-4-yl)amino)-4,6-dihydropyrrolo[3,4-c]pyrazole-5(1H)-carboxamide], the IC50 on CDK9 is over 10000 nM; on CDK7 it was 18.5 nM; at CDK2 it was over 10000 nM.

Consider `C=CC(=O)Nc1ccc(C(=O)Nc2n[nH]c3c2CN(C(=O)N[C@H]2CCCN(C)C2)C3(C)C)cc1` [Compound 210, (S)-3-(4-acrylamidobenzamido)-6,6-dimethyl-N-(1-methylpiperidin-3-yl)-4,6-dihydropyrrolo[3,4-c]pyrazole-5(1H)-carboxamide], for which the IC50 on CDK9 worked out at 1740 nM; at CDK7, 48.4 nM; on CDK2, 161 nM.

As for `CN(C)C[C@@H](NC(=O)N1Cc2c(Nc3ccnc(C(F)(F)F)n3)n[nH]c2C1(C)C)C1CCOCC1` [Compound 208, (S)—N-(2-(dimethylamino)-1-(tetrahydro-2H-pyran-4-yl)ethyl)-6,6-dimethyl-3-((2-(trifluoromethyl)pyrimidin-4-yl)amino)-4,6-dihydropyrrolo[3,4-c]pyrazole-5(1H)-carboxamide], the IC50 on CDK9 is over 10000 nM; on CDK7, 10.8 nM; on CDK2, 4520 nM.

Regarding `Cc1nc(Nc2n[nH]c3c2CN(C(=O)N[C@H](CN(C)C)C2CCOCC2)C3(C)C)c2sccc2n1` [Compound 201, (S)—N-(2-(dimethylamino)-1-(tetrahydro-2H-pyran-4-yl)ethyl)-6,6-dimethyl-3-((2-methylthieno[3,2-d]pyrimidin-4-yl)amino)-4,6-dihydropyrrolo[3,4-c]pyrazole-5(1H)-carboxamide], the values for the IC50 at CDK9, at CDK7 and on CDK2 were over 10000 nM, 39.1 nM and over 10000 nM, respectively.

As for `C=CC(=O)Nc1ccc(C(=O)Nc2n[nH]c3c2CN(C(=O)NC(CN(C)C)C2CCOC2)C3(C)C)cc1` (stereo not drawn) [Compound 079, 3-(4-acrylamidobenzamido)-N-(2-(dimethylamino)-1-(tetrahydrofuran-3-yl)ethyl)-6,6-dimethyl-4,6-dihydropyrrolo[3,4-c]pyrazole-5(1H)-carboxamide], the 50% inhibitory concentration (IC50) on CDK9 was 1060 nM; on CDK7, 190 nM; on CDK2, over 10000 nM.

Turning to `C=CC(=O)Nc1ccc(C(=O)Nc2n[nH]c3c2CN(C(=O)NC2(CN(C)C)CC2)C3(C)C)cc1` [Compound 065, 3-(4-acrylamidobenzamido)-N-(1-((dimethylamino)methyl)cyclopropyl)-6,6-dimethyl-4,6-dihydropyrrolo[3,4-c]pyrazole-5(1H)carboxamide], the half-inhibitory concentration (IC50) at CDK9 was over 10000 nM; on CDK7, 61.1 nM; on CDK2, over 10000 nM.

With `C=CC(=O)Nc1ccc(C(=O)Nc2n[nH]c3c2CN(C(=O)N[C@H](CN(C)C)C2CCOCC2)C3(C)C)cc1` [Compound 205, (S)-3-(4-acrylamidobenzamido)-N-(2-(dimethylamino)-1-(tetrahydro-2H-pyran-4-yl)ethyl)-6,6-dimethyl-4,6-dihydropyrrolo[3,4-c]pyrazole-5(1H)-carboxamide], the IC50 on CDK9 was 4010 nM; at CDK7, 12.8 nM; at CDK2 it was over 370 nM.

Regarding `C=CC(=O)Nc1cnc(Nc2n[nH]c3c2CN(C(=O)N[C@H](CN(C)C)C2CCOCC2)C3(C)C)nc1` [Compound 206, (S)-3-((5-acrylamidopyrimidin-2-yl)amino)-N-(2-(dimethylamino)-1-(tetrahydro-2H-pyran-4-yl)ethyl)-6,6-dimethyl-4,6-dihydropyrrolo[3,4-c]pyrazole-5(1H)-carboxamide], the IC50 on CDK9 is over 10000 nM; at CDK7, 732 nM; at CDK2 it was over 10000 nM.
